Results from patent US20250320206A1, “STAT6 DEGRADERS” (Gilead Sciences, Inc., priority 2024, published 2025).
pEC50: −log10 of the molar value.

Experiments:
STAT6 = target: T1, STAT6 (Homo sapiens, UniProt P42226); assay: Stat6 Degrader Assay (HiBiT based, HeLa LgBiT clone 4.14); format: cell-based; conditions: HeLa LgBiT clone 4.14 HiBiT-STAT6, 4-24 h incubation; values given for compounds with >80% Emax; geometric mean; read-out: STAT6 degradation DC50
T1 construct: These cells express endogenous STAT6; host or cells: HeLa LgBiT clone 4.14
T1 sequence (P42226 1-847): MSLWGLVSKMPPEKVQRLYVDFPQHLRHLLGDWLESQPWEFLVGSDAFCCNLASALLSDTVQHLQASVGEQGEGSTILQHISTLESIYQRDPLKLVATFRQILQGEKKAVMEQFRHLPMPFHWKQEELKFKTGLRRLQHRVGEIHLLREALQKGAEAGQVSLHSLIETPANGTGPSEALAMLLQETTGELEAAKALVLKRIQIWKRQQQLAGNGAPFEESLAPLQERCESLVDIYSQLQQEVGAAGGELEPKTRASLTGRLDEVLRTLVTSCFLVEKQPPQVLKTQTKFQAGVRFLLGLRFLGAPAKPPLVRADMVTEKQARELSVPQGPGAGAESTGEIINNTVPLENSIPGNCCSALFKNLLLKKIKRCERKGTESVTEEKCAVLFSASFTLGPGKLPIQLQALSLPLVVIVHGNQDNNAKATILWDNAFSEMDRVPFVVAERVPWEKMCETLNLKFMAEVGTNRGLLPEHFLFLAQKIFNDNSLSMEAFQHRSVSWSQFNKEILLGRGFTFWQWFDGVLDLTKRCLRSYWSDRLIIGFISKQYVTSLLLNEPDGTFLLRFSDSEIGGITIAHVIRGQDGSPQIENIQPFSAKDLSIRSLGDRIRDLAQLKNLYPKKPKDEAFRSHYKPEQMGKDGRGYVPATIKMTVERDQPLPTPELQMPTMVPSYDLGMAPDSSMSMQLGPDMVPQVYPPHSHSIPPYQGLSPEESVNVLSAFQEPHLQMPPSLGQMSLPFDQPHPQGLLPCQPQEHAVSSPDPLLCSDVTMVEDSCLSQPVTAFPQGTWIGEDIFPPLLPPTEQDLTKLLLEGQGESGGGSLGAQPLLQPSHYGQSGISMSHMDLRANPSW
Procedure, shortened: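 HeLa LgBiT clone 4.14 cells with CRISPR HiBiT-tagged endogenous STAT6, 5000 cells/well, compound dosed then incubated 4-24 h at 37° C, 5% CO2. Nano-Glo substrate added, 0.5 h, luminescence read as non-degraded STAT6. Terfenadine 50 μM (cell kill) defines 100% degradation.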

[1] = system: Eotaxin-3 release in human whole blood stimulated with IL-4; assay: Human Whole Blood Eotaxin-3 Assay (IL-4 stimulated eotaxin-3 release); format: cell-based; conditions: IL-4 stimulation, 48 h, values given for compounds with >80% Emax, geometric mean
Procedure, shortened: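 Lithium-heparin human whole blood preincubated 2 h at 37° C with 4-fold serially diluted compounds (0.5% DMSO), then stimulated with recombinant human IL-4 ([…]) for 48 h. Eotaxin-3 (CCL26) in supernatant quantified by MSD immunoassay.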

Compound	DC50 (STAT6)	pEC50 [1]
CNc1cc(=O)n(-c2ccnc3c2cc(CN2CCC(c4c(F)cc(C(=O)N5CCC(CN6CCN(Cc7ccc8c(c7)n(C)c(=O)n8C7CCC(=O)NC7=O)C[C@@H]6C)CC5)cc4F)CC2)n3C)cc1F (stereo partly drawn) [Example 3u60, 3-(5-(((S)-4-((1-(3,5-difluoro-4-(1-((4-(5-fluoro-4-(methylamino)-2-oxopyridin-1 (2H)-yl)-1-methyl-1H-pyrrolo[2,3-b]pyridin-2-yl)methyl)piperidin-4-yl)benzoyl)piperidin-4-yl)methyl)-3-methylpiperazin-1-yl)methyl)-3-methyl-2-oxo-2,3-dihydro-1H-benzo[d]imidazol-1-yl)piperidine-2,6-dione]	0.7 nM	8.80
CNc1cc(=O)n(-c2ccnc3c2cc([C@H](C)N2CC=C(c4c(C)cc(C(=O)N5CCC(CN6CCN(c7ccc8c(c7)C7(CC7)C(=O)N8C7CCC(=O)NC7=O)C[C@@H]6C)CC5)cc4F)CC2)n3C)cc1F (stereo partly drawn) [Example 3u63, 3-(5′-((S)-4-((1-(3-fluoro-4-(1-((S)-1-(4-(5-fluoro-4-(methylamino)-2-oxopyridin-1 (2H)-yl)-1-methyl-1H-pyrrolo[2,3-b]pyridin-2-yl)ethyl)-1,2,3,6-tetrahydropyridin-4-yl)-5-methylbenzoyl)-piperidin-4-yl)methyl)-3-methylpiperazin-1-yl)-2′-oxospiro[cyclopropane-1,3′-indolin]-1′-yl)-piperidine-2,6-dione]	12.9 nM	7.17
CNc1cc(=O)n(-c2ccnc3c2cc([C@H](C)N2CC=C(c4c(C)cc(C(=O)N5CCC(CN6CCN(Cc7ccc8c(c7)C7(CC7)C(=O)N8C7CCC(=O)NC7=O)CC6)CC5)cc4F)CC2)n3C)cc1F (stereo partly drawn) [Example 3u66, 3-(5′-((4-((1-(3-fluoro-4-(1-((S)-1-(4-(5-fluoro-4-(methylamino)-2-oxopyridin-1 (2H)-yl)-1-methyl-1H-pyrrolo[2,3-b]pyridin-2-yl)ethyl)-1,2,3,6-tetrahydropyridin-4-yl)-5-methylbenzoyl)-piperidin-4-yl)methyl)piperazin-1-yl)methyl)-2′-oxospiro[cyclopropane-1,3′-indolin]-1′-yl)piperidine-2,6-dione]	1.6 nM	8.37
C[C@H]1CN(Cc2ccc3c(c2)C2(CC2)C(=O)N3C2CCC(=O)NC2=O)CCN1CC1CCN(C(=O)c2cc(F)c(C3CCN(Cc4cc5c(-n6ccc7c(c6=O)CCN7)ccnc5n4C)CC3)c(F)c2)CC1 (stereo partly drawn) [Example 3u69, 3-(5′-(((S)-4-((1-(3,5-difluoro-4-(1-((1-methyl-4-(4-oxo-1,2,3,4-tetrahydro-5H-pyrrolo[3,2-c]pyridin-5-yl)-1H-pyrrolo[2,3-b]pyridin-2-yl)methyl)piperidin-4-yl)benzoyl)piperidin-4-yl)methyl)-3-methylpiperazin-1-yl)methyl)-2′-oxospiro[cyclopropane-1,3′-indolin]-1′-yl)piperidine-2,6-dione]	1.5 nM	8.62
CNc1ccn(-c2ccnc3c2cc(CN2CC=C(c4c(F)cc(C(=O)N5CCC(CN6CCN(Cc7ccc8c(c7)n(C7CC7)c(=O)n8C7CCC(=O)NC7=O)C[C@@H]6C)CC5)cc4F)CC2)n3C)c(=O)c1 (stereo partly drawn) [Example 3u71, 3-(3-cyclopropyl-5-(((S)-4-((1-(3,5-difluoro-4-(1-((1-methyl-4-(4-(methylamino)-2-oxopyridin-1 (2H)-yl)-1H-pyrrolo[2,3-b]pyridin-2-yl)methyl)-1,2,3,6-tetrahydropyridin-4-yl)benzoyl)piperidin-4-yl)methyl)-3-methylpiperazin-1-yl)methyl)-2-oxo-2,3-dihydro-1H-benzo[d]imidazol-1-yl)piperidine-2,6-dione]	5.3 nM	8.74
CNc1cc(=O)n(-c2ccnc3c2cc(CN2CC=C(c4c(F)cc(C(=O)N5CCC(CN6CCN(Cc7ccc8c(c7)C(C)(C)C(=O)N8C7CCC(=O)NC7=O)C[C@@H]6C)CC5)cc4F)CC2)n3C)cc1F (stereo partly drawn) [Example 3u77, 3-(5-(((S)-4-((1-(3,5-difluoro-4-(1-((4-(5-fluoro-4-(methylamino)-2-oxopyridin-1 (2H)-yl)-1-methyl-1H-pyrrolo[2,3-b]pyridin-2-yl)methyl)-1,2,3,6-tetrahydropyridin-4-yl)benzoyl)piperidin-4-yl)methyl)-3-methylpiperazin-1-yl)methyl)-3,3-dimethyl-2-oxoindolin-1-yl)piperidine-2,6-dione]	16.1 nM	7.62
CNc1ccn(-c2ccnc3c2cc([C@H](C)N2CCC(c4c(F)cc(C(=O)N5CCC(CN6CCN(Cc7ccc8c(c7)C(C)(C)C(=O)N8C7CCC(=O)NC7=O)C[C@@H]6C)CC5)cc4F)CC2)n3C)c(=O)c1 (stereo partly drawn) [Example 3u80, 3-(5-(((S)-4-((1-(3,5-difluoro-4-(1-((S)-1-(1-methyl-4-(4-(methylamino)-2-oxopyridin-1 (2H)-yl)-1H-pyrrolo[2,3-b]pyridin-2-yl)ethyl)piperidin-4-yl)benzoyl)piperidin-4-yl)methyl)-3-methyl-piperazin-1-yl)methyl)-3,3-dimethyl-2-oxoindolin-1-yl)piperidine-2,6-dione]	0.8 nM	8.30

Continued by falling DC50 (STAT6), values first:

DC50 (STAT6)	pEC50 [1]	Compound
12 nM	7.60	CNc1cc(=O)n(-c2ccnc3c2cc(CN2CCC(c4c(F)cc(C(=O)N5CCC(CN6CCN(Cc7ccc8c(c7)C(C)(C)C(=O)N8C7CCC(=O)NC7=O)CC6)CC5)cc4F)CC2)n3C)cc1F (stereo not shown) [Example 3u57, 3-(5-((4-((1-(3,5-difluoro-4-(1-((4-(5-fluoro-4-(methylamino)-2-oxopyridin-1 (2H)-yl)-1-methyl-1H-pyrrolo[2,3-b]pyridin-2-yl)methyl)piperidin-4-yl)benzoyl)piperidin-4-yl)methyl)piperazin-1-yl)methyl)-3,3-dimethyl-2-oxoindolin-1-yl)piperidine-2,6-dione]
3.4 nM	8.29	C[C@H]1CN(Cc2ccc3c(c2)C(C)(C)C(=O)N3C2CCC(=O)NC2=O)CCN1CC1CCN(C(=O)c2cc(F)c(C3CCN(Cc4cc5c(-n6ccc7c(c6=O)CCN7)ccnc5n4C)CC3)c(F)c2)CC1 (stereo partly drawn) [Example 3u86, 3-(5-(((S)-4-((1-(3,5-difluoro-4-(1-((1-methyl-4-(4-oxo-1,2,3,4-tetrahydro-5H-pyrrolo[3,2-c]pyridin-5-yl)-1H-pyrrolo[2,3-b]pyridin-2-yl)methyl)piperidin-4-yl)benzoyl)piperidin-4-yl)methyl)-3-methylpiperazin-1-yl)methyl)-3,3-dimethyl-2-oxoindolin-1-yl)piperidine-2,6-dione]
3.1 nM	8.28	Cc1cc(C(=O)N2CCC(CN3CCN(Cc4ccc5c(c4)n(C)c(=O)n5C4CCC(=O)NC4=O)CC3)CC2)cc(F)c1C1=CCN([C@@H](C)c2cc3c(-n4cc(F)c5c(c4=O)CCN5)ccnc3n2C)CC1 (stereo partly drawn) [Example 3u85, 3-(5-((4-((1-(3-fluoro-4-(1-((S)-1-(4-(7-fluoro-4-oxo-1,2,3,4-tetrahydro-5H-pyrrolo[3,2-c]pyridin-5-yl)-1-methyl-1H-pyrrolo[2,3-b]pyridin-2-yl)ethyl)-1,2,3,6-tetrahydropyridin-4-yl)-5-methylbenzoyl)piperidin-4-yl)methyl)piperazin-1-yl)methyl)-3-methyl-2-oxo-2,3-dihydro-1H-benzo[d]imidazol-1-yl)piperidine-2,6-dione]
0.6 nM	8.96	Cc1cc(C(=O)N2CCC(CN3CCN(Cc4cc5c(cc4F)n(C4CCC(=O)NC4=O)c(=O)n5C)CC3)CC2)cc(F)c1C1=CCN([C@@H](C)c2cc3c(-n4ccc5c(c4=O)CCN5)ccnc3n2C)CC1 (stereo partly drawn) [Example 3u74, 3-(6-fluoro-5-((4-((1-(3-fluoro-5-methyl-4-(1-((S)-1-(1-methyl-4-(4-oxo-1,2,3,4-tetrahydro-5H-pyrrolo[3,2-c]pyridin-5-yl)-1H-pyrrolo[2,3-b]pyridin-2-yl)ethyl)-1,2,3,6-tetrahydro-pyridin-4-yl)benzoyl)piperidin-4-yl)methyl)piperazin-1-yl)methyl)-3-methyl-2-oxo-2,3-dihydro-1H-benzo[d]imidazol-1-yl)piperidine-2,6-dione]
